{
  "source": "patent US7812031B2",
  "about": "“Pyrimidine derivatives as orexin receptor antagonists” (Sanofi-Aventis, priority 2004, dated 2010)",
  "key": {"[1]": {"target": "T1, human recombinant orexin-2 (hr-OX-2) receptor (Homo sapiens, UniProt O43614)", "T1 construct": "expressed in transfected cells; host or cells: CHO (CHO-hr-OX-2 cells), purified plasma membrane fraction", "T1 sequence (O43614 1-444)": "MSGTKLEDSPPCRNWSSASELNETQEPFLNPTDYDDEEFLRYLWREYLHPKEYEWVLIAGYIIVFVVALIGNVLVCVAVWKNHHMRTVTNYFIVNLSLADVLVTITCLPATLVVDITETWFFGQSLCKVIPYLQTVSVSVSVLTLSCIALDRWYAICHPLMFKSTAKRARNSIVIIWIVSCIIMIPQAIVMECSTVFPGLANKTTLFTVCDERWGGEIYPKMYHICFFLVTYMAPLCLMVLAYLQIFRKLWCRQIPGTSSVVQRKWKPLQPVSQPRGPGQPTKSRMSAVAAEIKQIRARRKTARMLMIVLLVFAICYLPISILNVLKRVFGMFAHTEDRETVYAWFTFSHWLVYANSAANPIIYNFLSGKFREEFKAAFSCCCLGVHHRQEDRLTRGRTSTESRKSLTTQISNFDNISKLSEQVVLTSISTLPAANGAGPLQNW", "experiment": "hr-125I-orexin-A radioligand competition binding, orexin-2 receptor", "conditions": "displacement of 125I-orexin-A, CHO-hr-OX-2 plasmamembranes, 25° C., 60 minutes; read-out: Orex-2 IC50", "procedure": "(§1) In vitro radioligand binding assays were used for determination of the affinities of the compounds for both the orexin-1 and orexin-2 receptors.\n(§2) In the frame of hr-^125I-orexin-A radioligand competition (displacement) experiments a fixed concentration of hr-^125I-orexin-A is incubated with increasing concentrations of unlabeled test compound in the presence of highly purified plasmamembranes bearing either the human recombinant orexin-1 (hr-OX-1) or the human recombinant orexin-2 (hr-OX-2) receptors. Specific binding of hr-^125I-orexin-A to plasmamembranes is measured at each concentrations of the unlabeled compound and thus a competition curve is generated. The concentration of unlabeled compound displacing 50% of specific binding (IC50) is calculated. In case of competitive interaction the binding affinity constant of the unlabeled compound (K1) is calculated according to the Cheng-Prusoff equation (K1=IC50/(1+L*/KD). Affinity of unlabeled compound for the receptor is equal to 1/K1.\n(§3) Culturing the Chinese hamster ovarian cells expressing human recombinant orexin-1 or orexin-2 receptor proteins (CHO-hr-OX-1 or CHO-hr-OX-2 cells) was carried out in cell culture medium (MEM medium, supplemented with 40 mg/l prolin, 20 mg/l gentamycin, 300 mg/l geneticin, 10% dialysed fetal calf serum).\n(§4) Adherent cells were plated into Greiner flasks (175 cm^2). 4-6 days later culture medium was removed and cells were scarped in calcium- and magnesium-free phosphate buffered saline (PBS, 20 ml/flask). The cell suspension was centrifuged at 1,000 g for 5 minutes (4° C.). The resulting pellet was resuspended and homogenized with a teflon pestle (4° C.), then layered onto a discontinuous sucrose gradient and centrifuged at 105,000 g. Plasmamembrane fraction accumulated in the interface between 14 and 34% sucrose layers was separated and pelleted by a further centrifugation step at 105,000 g for 60 min (4° C.). The final pellet was resuspended in binding assay buffer and stored at −80° C. up to the day of radioligand binding experiment.\n(§5) For ^125I-orexin-A competition binding studies, aliquots of cell membrane fractions containing either hr-orexin-1 or hr-orexin-2 receptors were incubated with ^125I-orexin-A in binding assay buffer at 25° C. for 60 minutes. Nonspecific binding was defined by 1 μM hr-orexin-A in both cases.\n(§6) Test compounds were dissolved at a concentration of 1 mM in dimethylsulfoxide (DMSO). Serial dilution series were prepared from stock solutions (100% DMSO) with binding assay buffer in such a way that each samples contained a final concentration of 1% of DMSO in the receptor binding reaction mixture. After the incubation, samples were filtered through Whatman GF/C glass fibre filters using a SKATRON cell harvester, and the filters were washed with 5 ml of ice-cold buffer The radioactivity remained on the filter was counted in a gamma counter (Wallac Automatic Gamma Counter 1470 Wizard)."}, "[2]": {"target": "T2, human recombinant orexin-1 (hr-OX-1) receptor (Homo sapiens, UniProt O43613)", "T2 construct": "expressed in transfected cells; host or cells: CHO (CHO-hr-OX-1 cells), purified plasma membrane fraction", "T2 sequence (O43613 1-425)": "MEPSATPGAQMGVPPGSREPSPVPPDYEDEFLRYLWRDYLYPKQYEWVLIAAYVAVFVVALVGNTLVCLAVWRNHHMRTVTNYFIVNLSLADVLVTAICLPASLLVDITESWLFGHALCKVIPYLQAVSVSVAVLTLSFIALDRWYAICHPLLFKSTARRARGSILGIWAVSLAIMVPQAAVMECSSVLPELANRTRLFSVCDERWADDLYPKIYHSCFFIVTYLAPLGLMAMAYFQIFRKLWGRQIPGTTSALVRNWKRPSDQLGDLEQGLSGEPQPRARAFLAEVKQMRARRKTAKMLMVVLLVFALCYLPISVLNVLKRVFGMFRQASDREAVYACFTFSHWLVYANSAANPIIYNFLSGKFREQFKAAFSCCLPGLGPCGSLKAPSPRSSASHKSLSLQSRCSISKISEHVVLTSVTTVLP", "experiment": "hr-125I-orexin-A radioligand competition binding, orexin-1 receptor", "conditions": "displacement of 125I-orexin-A, CHO-hr-OX-1 plasmamembranes, 25° C., 60 minutes; read-out: Orex-1 IC50", "procedure": "as §1, §2, §3, §4, §5, §6"}},
  "note": "pIC50: −log10 of the molar value.",
  "data": [
    {"smiles": "CN(CC(O)c1cccc(O)c1)C(=O)c1cnc(NCc2cccs2)nc1-c1ccccc1", "note": "(centres unmarked) (hydrate or solvate) [Example 17, 4-Phenyl-2-[(thiophen-2-ylmethyl)amino]pyrimidine-5-carboxylic acid [2-hydroxy-2-(3-hydroxyphenyl)ethyl]methylamide]", "values": [
      {"measurement": "melting point", "result": "85 to 87", "unit": "°C"}
    ]},
    {"smiles": "CN(Cc1ccccc1)c1ncc(C(=O)N2CCCCC2C(O)c2ccccc2)c(-c2ccccc2)n1", "note": "(racemic)", "values": [
      {"measurement": "pIC50", "setting": "[1]", "result": 5.17},
      {"measurement": "pIC50", "setting": "[2]", "result": 7.96}
    ]},
    {"smiles": "CN(CC(O)c1cccc(OC(=O)C(C)(C)C)c1)C(=O)c1cnc(N(C)C)nc1-c1ccccc1Cl", "note": "(centres unmarked) [2,2-Dimethylpropionic acid 3-{2-[(2-dimethylamino-4-(2-chlorophenyl)pyrimidine-5-carbonyl)methylamino]1-hydroxyethyl}phenyl ester]", "values": [
      {"measurement": "pIC50", "setting": "[1]", "result": 5.54},
      {"measurement": "pIC50", "setting": "[2]", "result": 7.52}
    ]},
    {"smiles": "Cc1ccccc1-c1nc(N(C)Cc2ccccc2)ncc1C(=O)N(C)CC(O)c1cccc(O)c1", "note": "(centres unmarked) [2-(Benzylmethylamino)-4-(2-methylphenyl)pyrimidine-5-carboxylic acid [2-hydroxy-2-(3-hydroxyphenyl)ethyl]methylamide]", "values": [
      {"measurement": "pIC50", "setting": "[1]", "result": 5.24},
      {"measurement": "pIC50", "setting": "[2]", "result": 7.66}
    ]},
    {"smiles": "COc1ccccc1C(=O)Nc1cccc(C(O)CN(C)C(=O)c2cnc(N(C)C)nc2-c2ccccc2)c1", "note": "(centres unmarked) [2-Dimethylamino-4-phenylpyrimidin-5-carboxylic acid {2-hydroxy-2-[3-(2-methoxy-benzoylamino)phenyl]ethyl}methylamide]", "values": [
      {"measurement": "pIC50", "setting": "[1]", "result": 6.49},
      {"measurement": "pIC50", "setting": "[2]", "result": 7.82}
    ]},
    {"smiles": "CN(CC(O)c1cccc(OCc2ccccc2)c1)C(=O)c1cnc(N(C)C)nc1-c1ccccc1", "note": "(centres unmarked) [2-Dimethylamino-4-phenylpyrimidine-5-carboxylic acid [2-(3-benzyloxyphenyl)-2-hydroxyethyl]methylamide]", "values": [
      {"measurement": "pIC50", "setting": "[1]", "result": 5.44},
      {"measurement": "pIC50", "setting": "[2]", "result": 7.52}
    ]},
    {"smiles": "CC(C(O)c1ccccc1)N(C)C(=O)c1cnc(NCc2ccccn2)nc1-c1ccccc1", "note": "(centres unmarked) [4-Phenyl-2-[(pyridin-2-ylmethyl)amino]pyrimidin-5-carboxylic acid (2-hydroxy-1-methyl-2-phenylethyl)methylamide]", "values": [
      {"measurement": "pIC50", "setting": "[1]", "result": 5.27},
      {"measurement": "pIC50", "setting": "[2]", "result": 7.92}
    ]},
    {"smiles": "CN(CC(O)c1cccc(OCc2ccccc2)c1)C(=O)c1cnc(N(C)C)nc1-c1ccc(Cl)c(Cl)c1", "note": "(centres unmarked) [Example 59, 2-Dimethylamino-4-(3,4-dichlorophenyl)pyrimidine-5-carboxylic acid [2-(3-benzyloxyphenyl)-2-hydroxyethyl]methylamide]", "values": [
      {"measurement": "melting point", "result": "68 to 70", "unit": "°C"}
    ]}
  ]
}
